In patent US6372774B1, “Derivatives of N-phenylpyrazoles” (Rhone-Poulenc Agriculture Ltd., priority 1985, dated 2002):

Key:
Type in all cases: in vivo
[1] = system: Megoura viciae (Vetch Aphid); test: Test 1(b): spray of infested tic bean plants, Megoura viciae; conditions: at 50 ppm, 2 days, score 0-3 per replicate, 4 replicates (maximum 12)
Procedure: (§1) One or more dilutions of the compounds to be tested were made in 50% aqueous acetone.
(b) Megoura viciae (Vetch Aphid)
Potted tic bean plants previously infected with mixed stages of Megoura were sprayed to run-off using a laboratory turntable sprayer. Treated plants were held in a greenhouse for 2 days and were assessed for aphid mortality using a scoring system, judging the response in comparison with plants treated with 50% aqueous acetone alone, as controls. Each treatment was replicated 4 times.

[2] = system: Spodoptera littoralis (Egyptian Cotton Worm); test: Test 2: leaf disc spray test, Spodoptera littoralis larvae; conditions: foliar, application of 500 ppm, 2nd instar larvae on French bean leaf discs, sprayed
Description: One or more of the dilutions of the compounds to be tested were made in 50% aqueous acetone.
Test species: Spodoptera littoralis (Egyptian Cotton Worm)
French bean leaf discs were set in agar in petri dishes and infected with 5 2nd instar larvae. Four replicate dishes were assigned to each treatment and were sprayed under a Potter Tower with the appropriate test dilution. After 2 days, live larvae were transferred to similar dishes containing untreated leaves set in agar. Two or three days later, the dishes were removed from the constant temperature (25° C.) room in which they had been held and the mean percentage mortalities of larvae were determined.

[3] = system: Plutella xylostella (Diamond-back Moth); test: whole plant or invertebrate; conditions: foliar
How it was run: (§2)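 Compounds were diluted in 50% aqueous acetone and sprayed in a Potter Tower onto turnip leaf discs in agar, each infested with 10 larvae (2nd instar Plutella, 3rd instar Phaedon), with four replicates per treatment. Mean percentage larval mortality was scored 4–5 days later at 25 °C.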

[4] = system: Phaedon cochleariae (Mustard Beetle); test: Test 3 a): leaf disc spray test, Phaedon cochleariae larvae; conditions: Phaedon cochleariae, foliar, read-out: Phaedon % m 10 ppm
How it was run: as §2

Periplaneta americana = test: Test 5: injection into cockroaches; conditions: dose of 5 micrograms/g insect body weight, injected in acetone; five days after treatment
Procedure: 0.2 microliters of an acetone solution of the compound was injected through the soft cuticle between the leg and thorax of ten insects, to give a dose rate of 5 micrograms per g of insect body weight. Ten cockroaches were similarity injected with 0.2 microliters of acetone alone to serve as controls. After treatment the insects were held in plastic boxes with appropriate food. Five days after treatment the numbers of dead and alive insects were counted and percentage mortalities calculated.

[5] = system: Megoura viciae (Vetch Aphid); test: Test 3 b): spray of infested tic bean plants, Megoura viciae
Procedure: as §1
b) Megoura viciae (Vetch Aphid)
Potted tic bean plants previously infected with mixed stages of Megoura were sprayed to run-off using a laboratory turntable sprayer. Treated plants were held in a greenhouse for 2 days and were assessed for aphid mortality using a scoring system, judging the response in comparison with plants treated with 50% aqueous acetone alone, as controls.

[6] = system: larvae of Rhipicephalus appendiculatus; test: Test 4: tick larvae on guinea-pigs given subcutaneous injections; conditions: for percentage survival through moulting of engorged tick larvae: recovered ticks kept at 23° C. for 14 to 21 days
Procedure: Some 20 larvae of Rhipicephalus appendiculatus were placed in plastic capsules attached to the shaved flank of guinea-pigs. After 3 hours and then at 23 hourly intervals, the guinea-pigs were given a total of 4 subcutaneous injections of the test compound. Approximately 100 hours after infestation, the guinea-pigs were killed and the engorged tick larvae recovered, counter and kept at 23° C. in a humidity cabinet for 14 to 21 days. After this period, the percentage survival through moulting was assessed.

[7] = Dose 5 mg/kg at each repetition, 4 subcutaneous injections to guinea-pigs, about 100 hours after infestation

**Q.** With `N#Cc1nn(-c2c(Cl)cc(C(F)(F)F)cc2Cl)c(N)c1SC(Cl)(Cl)Cl` [Compound 11, 5-Amino-3-cyano-1-(2,6-dichloro-4-trifluoromethylphenyl)-4-trichloromethylthiopyrazole] as the molecule, how does the “score against all stages of Megoura viciae” value (from here on “score against all stages”) [1] read?
**A.** Its value is 7/12.

**Q.** `CC(C)[S+]([O-])c1c(C#N)nn(-c2c(Cl)cc(C(F)(F)F)cc2Cl)c1N` (stereo not drawn) [Compound 58, 5-Amino-3-cyano-1-(2,6-dichloro-4-trifluoromethylphenyl)-4-isopropylsulphinylpyrazole] was tested. Which “score against all stages” value [1] did it give?
**A.** Its value is 7/12.

**Q.** `CCCSc1c(C#N)nn(-c2c(Cl)cc(C(F)(F)F)cc2Cl)c1N` [Compound 71, 5-Amino-3-cyano-1-(2,6-dichloro-4-trifluoromethylphenyl)-4-propylthiopyrazole] was tested. Which “score against all stages” value [1] did it give?
**A.** Its value is 7/12.

**Q.** `CC(C)Sc1c(C#N)nn(-c2c(Cl)cc(C(F)(F)F)cc2Cl)c1N` [Compound 72, 5-Amino-3-cyano-1-(2,6-dichloro-4-trifluoromethylphenyl)-4-isopropylthiopyrazole] was tested. Which “score against all stages” value [1] did it give?
**A.** Its value is 7/12.

**Q.** With `CC(C)CSc1c(C#N)nn(-c2c(Cl)cc(C(F)(F)F)cc2Cl)c1N` [Compound 73, 5-Amino-3-cyano-1-(2,6-dichloro-4-trifluoromethylphenyl)-4-(2-methylpropylthio)pyrazole] as the molecule, how does the “score against all stages” value [1] read?
**A.** The value was 7/12.

**Q.** How did the “score against all stages” value [1] turn out when `CCC(C)Sc1c(C#N)nn(-c2c(Cl)cc(C(F)(F)F)cc2Cl)c1N` (stereo not drawn) [Compound 74, 5-Amino-3-cyano-1-(2,6-dichloro-4-trifluoromethylphenyl)-4-(1-methylpropylthio)pyrazole] was run?
**A.** Its value is 7/12.

**Q.** For `C=CCSc1c(C#N)nn(-c2c(Cl)cc(C(F)(F)F)cc2Cl)c1N` [Compound 75, 4-Allylthio-5-amino-3-cyano-1-(2,6-dichloro-4-trifluoromethylphenyl)pyrazole], which “score against all stages” value [1] is on record?
**A.** The value was 7/12.

**Q.** `CC(=O)Nc1c([N+](=O)[O-])c(Br)nn1-c1c(Cl)cc(C(F)(F)F)cc1Cl` [Compound 102, 5-Acetamido-3-bromo-1-(2,6-dichloro-4-trifluoromethylphenyl)-4-nitropyrazole] was tested. Which mortality at 500 ppm [2] did it give?
**A.** The mortality at 500 ppm was ≥ 70%.

**Q.** `CC(=O)Nc1c([N+](=O)[O-])c(Cl)nn1-c1c(Cl)cc(C(F)(F)F)cc1Cl` [Compound 103, 5-Acetamido-3-chloro-1-(2,6-dichloro-4-trifluoromethylphenyl)-4-nitropyrazole] was tested. Which mortality at 500 ppm [2] did it give?
**A.** Its mortality at 500 ppm is ≥ 70%.

**Q.** `CC(=O)Nc1c([N+](=O)[O-])c(C#N)nn1-c1c(Cl)cc(C(F)(F)F)cc1Cl` [Compound 104, 5-Acetamido-3-cyano-1-(2,6-dichloro-4-trifluoromethylphenyl)-4-nitropyrazole] was tested. Which mortality at 500 ppm [2] did it give?
**A.** The mortality at 500 ppm was ≥ 70%.

**Q.** With `Nc1c([N+](=O)[O-])c(Br)nn1-c1c(Cl)cc(C(F)(F)F)cc1Cl` [Compound 105, 5-Amino-3-bromo-1-(2,6-dichloro-4-trifluoromethylphenyl)-4-nitropyrazole] as the molecule, how does the mortality at 500 ppm [2] read?
**A.** Its mortality at 500 ppm is ≥ 70%.

**Q.** Which mortality at 500 ppm [2] does the source give for `Nc1c([N+](=O)[O-])c(Cl)nn1-c1c(Cl)cc(C(F)(F)F)cc1Cl` [Compound 106, 5-Amino-3-chloro-1-(2,6-dichloro-4-trifluoromethylphenyl)-4-nitropyrazole] here?
**A.** The mortality at 500 ppm was ≥ 70%.

**Q.** Which mortality at 500 ppm [2] does the source give for `N#Cc1nn(-c2c(Cl)cc(C(F)(F)F)cc2Cl)c(N)c1[N+](=O)[O-]` [Compound 107, 5-Amino-3-cyano-1-(2,6-dichloro-4-trifluoromethylphenyl)-4-nitropyrazole] here?
**A.** Its mortality at 500 ppm is ≥ 70%.

**Q.** For `N#Cc1nn(-c2c(Cl)cc(C(F)(F)F)cc2Cl)c(N)c1C#N` [Compound 110, 5-Amino-1-(2,6-dichloro-4-trifluoromethylphenyl)-3,4-dicyanopyrazole], which pest or weed control at 500 ppm ([3]; read-out: Plutella % m 500 ppm) is on record?
**A.** The pest or weed control at 500 ppm was 89%.

**Q.** And the pest or weed control at 10 ppm [4]?
**A.** The pest or weed control at 10 ppm was 100%.

**Q.** What about the “mortality of Periplaneta americana” value (Periplaneta americana) of the same molecule?
**A.** The value was 100%.

**Q.** With `N#Cc1c(C(F)(F)F)nn(-c2c(Cl)cc(C(F)(F)F)cc2Cl)c1N` [Compound 113, 5-Amino-4-cyano-1-(2,6-dichloro-4-trifluoromethylphenyl)-3-trifluoromethylpyrazole] as the molecule, how does the mortality at 500 ppm ([3]; read-out: mortality of larvae of Plutella xylostella) read?
**A.** The mortality at 500 ppm was 100%.

**Q.** What about the pest or weed control at 10 ppm [4] of the same molecule?
**A.** The pest or weed control at 10 ppm was 100%.

**Q.** What about the mortality at 50 ppm ([5]; Megoura viciae, read-out: mortality of Megoura viciae) of the same molecule?
**A.** The mortality at 50 ppm was 100%.

**Q.** What about the “score from 4 replicates, Megoura viciae” value ([5]; Test 3 method (b), application of 50 ppm, score 0-3 per replicate, maximum 12) of the same molecule?
**A.** The value was 12.

**Q.** And the “percentage survival through moulting of engorged tick larvae” value (“percentage survival through moulting” for short) ([6]; Dose 1.0 mg/kg at each repetition)?
**A.** The value was “only 47.9 percent survived”.

**Q.** What about the “percentage survival through moulting” value ([6]; Dose 2.5 mg/kg at each repetition) of the same molecule?
**A.** The value was “only 30.0 percent survived”.

**Q.** And the “Result: ticks recovered / number of engorged ticks” value ([6]; Dose 3 mg/kg at each repetition, 4 subcutaneous injections to guinea-pigs, about 100 hours after infestation)?
**A.** Its value is “reduced”.

**Q.** What about the “percentage survival through moulting” value ([6]; Dose 3 mg/kg at each repetition) of the same molecule?
**A.** The value was 8.3%.

**Q.** What about the “Result: ticks recovered / engorgement” value ([6]; Dose 4 mg/kg at each repetition, 4 subcutaneous injections to guinea-pigs, about 100 hours after infestation) of the same molecule?
**A.** Its value is “No ticks recovered”.

**Q.** What about the “Result: ticks recovered / engorgement” value [6, 7] of the same molecule?
**A.** Its value is “No ticks recovered”.

**Q.** Which “mortality of Periplaneta americana” value (Periplaneta americana) does the source give for `N#Cc1nn(-c2c(Cl)cc(C(F)(F)F)cc2Cl)c(NC(=O)C2CC2)c1C#N` [Compound 122, 5-Cyclopropylcarbonamido-1-(2,6-dichloro-4-trifluoromethylphenyl)-3,4-dicyanopyrazole] here?
**A.** Its value is 100%.

**Q.** For `N#Cc1nn(-c2ccc(C(F)(F)F)cc2Cl)c(N)c1C#N` [Compound 125, 5-Amino-1-(2-chloro-4-trifluoromethylphenyl)-3,4-dicyanopyrazole], which “mortality of Periplaneta americana” value (Periplaneta americana) is on record?
**A.** Its value is 100%.

**Q.** With `CC(=O)Nc1c(C#N)c(C(F)(F)F)nn1-c1c(Cl)cc(C(F)(F)F)cc1Cl` [Compound 133, 5-Acetamido-4-cyano-1-(2,6-dichloro-4-trifluoromethylphenyl)-3-trifluoromethylpyrazole] as the molecule, how does the mortality at 100 ppm ([3]; read-out: Plutella % mortality at 100 ppm) read?
**A.** Its mortality at 100 ppm is 21%.

**Q.** What about the pest or weed control at 10 ppm [4] of the same molecule?
**A.** Its pest or weed control at 10 ppm is 100%.

**Q.** What about the “Result: ticks recovered / engorgement” value ([6]; Dose 2.5 mg/kg at each repetition, 4 subcutaneous injections to guinea-pigs, about 100 hours after infestation) of the same molecule?
**A.** Its value is “No ticks recovered”.

**Q.** And the “Result: ticks recovered / engorgement” value [6, 7]?
**A.** The value was “No ticks recovered”.

**Q.** And the “Result: ticks recovered / engorgement” value ([6]; Dose 15 mg/kg at each repetition, 4 subcutaneous injections to guinea-pigs, about 100 hours after infestation)?
**A.** The value was “No ticks recovered”.
